# Entries after “also recorded” stand apart in the source; their conditions may differ.
# What was measured:
# [1] = test system: mouse model of schizophrenia; test: Prepulse inhibition (PPI) of the startle reflex; conditions: for % inhibition (ability to adjust to sound stimulus, PPI): Study I, age 8 weeks
# [2] = orally-administered; cited from earlier work
# [3] = test system: mouse model of schizophrenia; test: Elevated Plus Maze test; conditions: for time spent in the distal end of the opened arm (anxiety): Study I, age 13 weeks
# [4] = Body weight of mice in the neonatal PCP model
# [5] = in vivo; cited from earlier work
# [6] = test system: mouse model of schizophrenia; test: Behavior in the Phenotyper cage; type: in vivo, mice; conditions: Study II
# cannabinoid receptor CB2 = cannabinoid receptor CB2 (Homo sapiens, UniProt P34972); conditions: cited from earlier work
# cannabinoid receptor CB2, sequence (P34972 whole entry): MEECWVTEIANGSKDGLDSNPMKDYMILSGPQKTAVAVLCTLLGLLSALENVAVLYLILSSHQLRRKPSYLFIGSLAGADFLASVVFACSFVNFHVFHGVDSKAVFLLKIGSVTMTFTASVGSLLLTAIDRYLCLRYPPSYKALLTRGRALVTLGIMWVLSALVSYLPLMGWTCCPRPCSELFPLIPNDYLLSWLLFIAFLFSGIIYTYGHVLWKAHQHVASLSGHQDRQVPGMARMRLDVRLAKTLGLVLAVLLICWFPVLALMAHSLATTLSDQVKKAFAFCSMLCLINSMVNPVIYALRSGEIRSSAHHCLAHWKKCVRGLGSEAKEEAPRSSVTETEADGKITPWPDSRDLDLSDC
# [7] = test system: mouse model of schizophrenia; test: Open-field test (ambulation/crossing, rearing, grooming)
# [8] = Study II, PND 68, saline-treated mice
# [9] = Study III: male mice, PND 17, PCP 5 mg/kg, 1 h later BCP 10 mg/kg or BCP+AM630 10 mg/kg each, DMSO-based vehicle
substance,measurement,setting,value
beta-caryophyllene [BCP],"% inhibition (ability to adjust to sound stimulus, PPI)",[1]; females (FIG. 5D),No significant difference
same,"% inhibition (ability to adjust to sound stimulus, PPI)",[1]; males (FIG. 5B),reversed this effect; also recorded: significantly reversed the effect of PCP on the sensorimotor-gate in males
same,response to startle at the end of the PPI test,"[1]; Study II, PND 68 (FIGS. 18A-18C)",did not affect the response to startle at the end of the PPI test
same,pre-pulse inhibition (% PPI),"[1]; Study II, PND 68, PCP-treated mice (FIG. 16A)",significantly reversed the effect of PCP on pre-pulse inhibition; also recorded: reversed the effect of PCP on PPI
same,response to pre-pulse tones,"[1]; Study II, PND 68, PCP-treated mice (FIGS. 17A-17C)",significantly reversed the effect of PCP on response to pre-pulse tones; also recorded: reversed the effect of PCP on the response to tone
same,startle response,"[1]; Study II, PND 68, females (FIG. 16B)",significantly reversed the effect of PCP on startle response in females
same,response to the startle stimuli,"[1]; Study II, PND 68, males (FIG. 16C)",no difference in the response to the startle stimuli between groups
same,pre-pulse inhibition (% PPI),[1]; [8],no substantial effect on saline-treated mice
same,response to pre-pulse tones,[1]; [8],no effect on saline-treated mice
same,response to the startle stimuli (120 dB),"[1]; Study II, PND 106 (FIGS. 25A-25C)",no difference in the response to the startle stimuli (120 dB) between groups
same,response to tones,"[1]; Study II, PND 106 (FIGS. 25D-25F)",reversed the effect of PCP on the response to tones
same,% pre-pulse inhibition (PPI),"[1]; Study II, PND 106 (FIGS. 25G-25I)",reversed the effect of PCP on the % pre-pulse inhibition; also recorded: reversed the effect of PCP on attention at PND106
same,oral absorption / systemic availability,[2],absorbed by the digestive tract and becomes systemically available
same,time spent in the distal end of the opened arm (anxiety),"[3]; females (FIGS. 6E, 6G)",reversed this effect; also recorded: reversed both effects
same,time spent in the distal end of the opened arm (anxiety),"[3]; males (FIGS. 6F, 6H)",reversed this effect; also recorded: reversed both effects
same,behavior in the Plus Maze test,"[3]; Study II, PND 64 (FIGS. 19A-19F)",did not reverse the effects of PCP on behavior in the Plus Maze test
same,body weight,"[4]; Study I, BCP 10 mg/kg in DMSO-based vehicle (FIG. 12C)",completely reversed the effect of PCP on body weight
same,body weight,"[4]; Study I, ethanol-based vehicle, PND 7 / first week of life (FIG. 1B)",reversed the reduction in body weight during the first week of life
same,body weight,"[4]; Study I: PCP 5 mg/kg PND 3-16, BCP 10 mg/kg 1 h after PCP, ethanol-based vehicle, each day of injection PND 3-17 (FIG. 1A)",did not restore the weight completely
same,body weight,"[4]; Study I, PND 17 (FIG. 2C)",no significant difference between groups treated with PCP with or without BCP
same,body weight,"[4]; Study I, PND 17, males (FIG. 3A)",appeared to be more prominent
same,body weight,"[4]; Study I, PND 35-37, females (FIG. 4D)",significantly reversed the effect of PCP on female body weight
same,body weight,"[4]; Study I, PND 35-37, males (FIG. 4A)",no significant difference in male body weight between the groups
same,body weight,[4]; Study II: BCP 5 mg/kg twice a week on PND 43-61 (FIG. 14A),did not affect body weight
same,body weight,"[4]; Study II, PND 104","did not increase body weight in females and males, rather reduced body weight of PCP+BCP treated group"
same,toxicity,[5],apparent substantial non-toxicity
same,time spent in the food zone,[6]; PND 91,did not affect the time spend in the food zone
same,time spent at the drinking zone,"[6]; PND 91, compared with PCP-treated group",appeared to reduce the time spend at the drinking zone
same,frequency of entries to the wheel,"[6]; PND 91, females and males",reversed the effects of PCP on the frequency of entries to the wheel; also recorded: reversed the effects of PCP on frequency of entries to the wheel
same,time spent in the Hidden Zone,"[6]; PND 91, females and males",reversed the effects of PCP on the time spend in the Hidden Zone; also recorded: reversed the effects of PCP on the time spent in the hidden zone
same,frequency of entries to the hidden zone,"[6]; PND 91, males (FIG. 20D)",reversed the effect of PCP in males
same,frequency of entries to the Wheel Zone,[6]; PND 105,appeared to reduce the effect of PCP on the frequency of entries to the Wheel Zone
same,frequency of entries to the hidden zone,[6]; PND 105,reversed the effects of PCP on the frequency of entries to the hidden zone; also recorded: reversed the effect of PCP on frequency of entries to hidden zone
same,time spent at the hidden zone,[6]; PND 105,reversed the effects of PCP on the time spend at the hidden zone; also recorded: reversed the effect of PCP on time spent at the hidden zone
same,time spent in the wheel,[6]; PND 105,showed a trend to reverse the effect of PCP on the time spend in the wheel
same,activity at CB2 receptor,cannabinoid receptor CB2,CB2-receptor agonist
same,ambulation,"[7]; Study I, DMSO-based carrier, PND 17, males (FIG. 12A)",completely reversed the effects of PCP
same,rearing behavior,"[7]; Study I, DMSO-based carrier, PND 17, males (FIG. 12B)",completely reversed the effects of PCP
same,rearing,"[7]; Study I, ethanol-based vehicle, PND 17 (FIG. 2B)",reversed the effects of PCP on rearing and exploration
same,ambulation (exploration),"[7]; Study I: PCP 5 mg/kg, BCP 10 mg/kg, ethanol-based vehicle, PND 17 (FIG. 2A)",reversed the effects of PCP on rearing and exploration
same,ambulation,"[7]; Study I, PND 17, females",reversed a proportion of the effects of PCP on ambulation and rearing behavior of female mice
same,rearing behavior,"[7]; Study I, PND 17, females",reversed a proportion of the effects of PCP on ambulation and rearing behavior of female mice
same,locomotor activity,"[7]; Study I, PND 17, males",appeared to be less sensitive to the treatment of PCP or PCP+BCP
same,rearing and exploration behaviors,"[7]; Study I, PND 35-37, females (FIGS. 4E, 4F)",no differences in rearing and exploration behaviors were seen between the different groups
same,rearing behavior,"[7]; Study I, PND 35-37, males (FIG. 4B)",significantly reduced rearing behavior as compared to vehicle and PCP-treated groups
same,locomotor activity,"[7]; Study I, PND 35-37, males (FIG. 4C)",reduced locomotor activity; also recorded: significantly reversed the effect of PCP in males
same,exploration,"[7]; Study II: BCP in adolescence compared with saline-treated mice, PND 63",significantly inhibited the exploration of mice compared with saline-treated mice
same,ambulation,"[7]; Study II: neonatal PCP, BCP 5 mg/kg PND 43-61, PND 63, male and female",significantly reversed the effect of PCP on ambulation in male and female mice
same,rearing,"[7]; Study II, PND 63, females and males (FIGS. 15A-15C)",reversed the effect of PCP on rearing in both females and males
same,exploratory behavior,"[7]; Study II, PND 104, females (last BCP treatment PND 61)",a relapse in exploratory behavior was evident
same,"self-grooming (total, without stimuli)","[7]; Study II, PND 104, females or males",did not reverse the effect of PCP on self-grooming; also recorded: did not reverse the effect of PCT on grooming
same,exploration,"[7]; Study II, PND 104, males",improved exploration and rearing behaviors of male PCP treated mice
same,rearing behavior,"[7]; Study II, PND 104, males",still significantly higher than that of PCP-treated mice with no BCP treatment; also recorded: improved exploration and rearing behaviors of male PCP treated mice
same,ambulation,[7]; [9],reversed the effects of PCP on rearing and exploration
same,rearing,[7]; [9],reversed the effects of PCP on rearing and exploration

# From patent US11612572B2, “Treatment of schizophrenia using beta-caryophyllene and CB2 receptor agonists” (priority 2012, dated 2023)
